# Measurements taken from US5712417A, “Inhibitors of retroviral proteases” (Abbott Laboratories, priority 1989, dated 1998).
# Where a name gives a salt, the structure may show the parent alone.
# Target: T1, HIV protease (Human immunodeficiency virus type 1 group M subtype B, UniProt P04585)
# T1 construct: HIV protease consists of 99 amino acids and is evidently split off by itself from the pol polyprotein
# Assay: Inhibition of HIV protease (cleavage of H-Ser-Phe-Asn-Phe-Opr-Gln-Ile-OH, HPLC)
# Assay type: biochemical
# Details: inhibitor concentration at which the cleavage rate is halved; pH 6, 2 hours; read-out: IC50
# Description: The compounds of the formula (I) according to the invention have enzyme-inhibiting properties. In particular, they inhibit the action of retroviral aspartyl proteases, such as that of HIV protease. Their enzyme-inhibitory action, which is in the milli- to subnanomolar range, can be determined as follows.
# The heptapeptide: H-Ser-Phe-Asn-Phe-Pro-Gln-Ile-OH (P. L. Darke et al., Biophys. Res. Commun. 156 (1988) 297-303), inter alia, has hitherto been used as the substrate of HIV protease. HIV protease cleaves the substrate here between the second Phe and Pro.
# General instructions for testing inhibitors of HIV proteases: a) Preparation of the substrate solution:
# 2 mg of H-Ser-Phe-Asn-Phe-Opr-Gln-Ile-OH (H-Opr-OH=5-oxaproline) are dissolved in 1 ml of MGTE15 buffer (use of ultrasound if necessary) and the solution is then filtered over a sterile filter (0.45 μm). […]
# b) Preparation of the inhibitor solution:
# 2.5 times the desired molarity of the inhibitor per ml of solution are weighed out and dissolved in DMSO (10% of the final volume). The solution is diluted to the final volume with MGTE15 buffer and filtered over a sterile filter (0.45 μm). […]
# c) Preparation of the protease solution:
# 5 μl of the HIV protease solution are diluted with MGTE25 buffer as required.
# 10 μl portions of the substrate solution are pipetted into test-tubes (16×100) with a screw cap. For the blank experiment, 10 μl of MGTE15 buffer containing 10% of DMSO are pipetted into a test-tube. 10 μl portions of the inhibitor solutions are added to the other test-tubes. The mixtures are incubated at 37° C. for 5-10 minutes and 5 μl of the protease solution are then added to each sample, After reaction at 35° C. for 2 hours, 10 or 20 μl (depending on the sensitivity of the HPLC apparatus) of each sample are then pipetted off, introduced into microvials and diluted with 120 μl of the HPLC mobile phase. […]
# e) Conditions for the HPLC analysis:
# 20% (weight/weight) of aceto-
# Column: Merck ®LICHROSORB RP18 (5 μm) 250×4
# Column temperature: 42° C.
# Detector parameters: 215 nm, 0.08 AUF, 18.2° C.
# Analysis time: 11 minutes
# Retention time of the substrate: 8.1 minutes
# Retention time of the N-terminal tetrapeptide: 3.9 minutes
# 20 mM morpholinoethanesulfonic acid (MES)
# 15% (weight/volume) of glycerol
# 0.1% (volume/volume) of Triton ×100
# 1 mM phenylmethylsulfonyl fluoride (PMSF)
# 25% (weight/volume) of glycerol, additionally 1 mM dithiothreitol (DTT) The MES, EDTA, NaCl, DTT and PMSF are weighed into a conical flask and dissolved in a little water and the pH is brought to 6. The corresponding amount of glycerol is weighed into a measuring flask and ®Triton ×100 is pipetted in. The aqueous solution is transferred to the measuring flask and made up to the mark with water.
# A 0.1M solution is prepared from orthophosphoric acid (FLUKA extra pure analytical grade). This solution is brought to exactly pH 2.5 with triethylamine (FLUKA extra pure analytical grade). The weight of the solution is determined and the corresponding amount of acetonitrile (fume cupboard) is weighed in. The mixture is mixed thoroughly and degassed with helium 5.0 for about 5 minutes.
# Under the conditions chosen here, heptapeptides are separated from the N-terminal tetrapeptide formed during enzymatic cleavage. The percentage content of the tetrapeptide peak in respect of the sum of tetrapeptide+heptapeptide corresponds to the cleaving rate. The following IC50 values indicate the inhibitor concentration at which the cleavage rate is halved.
row,Compound,IC50 [nM]
1,"CSCC[C@H](NC(=O)OC(C)(C)C)C(=O)N[C@H](C(=O)N[C@@H](Cc1ccccc1)[C@H](O)[C@@H](O)[C@H](Cc1ccccc1)NC(=O)[C@@H](NC(=O)[C@H](CCSC)NC(=O)OC(C)(C)C)C(C)C)C(C)C [Example 75, N,N'-bis-<tert.-Butoxycarbonyl-L-methionyl-L-valyl>-2S,5S-diamino-1,6-diphenylhexane-3S,4S-diol]",19
2,"COc1ccc(C[C@H](N)C(=O)N[C@H](C(=O)N[C@@H](Cc2ccccc2)[C@H](O)[C@@H](O)[C@H](Cc2ccccc2)NC(=O)[C@@H](NC(=O)[C@@H](N)Cc2ccc(OC)cc2)C(C)C)C(C)C)cc1 [Example 76, N,N'-bis-<(O-Methyltyrosyl-L-valyl>-2S,5S-diamino-1,6-diphenylhexane-3S,4S-dioldihydrochloride]",0.29
3,"COc1ccc(C[C@H](NC(=O)OC(C)(C)C)C(=O)N[C@H](C(=O)N[C@@H](Cc2ccccc2)[C@H](O)[C@@H](O)[C@H](Cc2ccccc2)NC(=O)[C@@H](NC(=O)[C@H](Cc2ccc(OC)cc2)NC(=O)OC(C)(C)C)C(C)C)C(C)C)cc1 [Example 77, N,N'-bis-<tert.-Butoxycarbonyl-(O-methyltyrosyl)-L-valyl>-2S,5S-diamino-1,6-diphenylhexane-3S,4S-diol]",9.2
4,"CC(C)[C@H](NC(=O)[C@@H](N)Cc1ccc(O)cc1)C(=O)N[C@@H](Cc1ccccc1)[C@H](O)[C@@H](O)[C@H](Cc1ccccc1)NC(=O)[C@@H](NC(=O)[C@@H](N)Cc1ccc(O)cc1)C(C)C [Example 78, N,N'-bis-<L-Tyrosyl-L-valyl>-2S,5S-diamino-1,6-diphenyl-hexane-3S,4S-dioldihydrochloride]",1.8
5,"CC(C)[C@H](NC(=O)[C@H](CCC(=O)O)NC(=O)OC(C)(C)C)C(=O)N[C@@H](Cc1ccccc1)[C@H](O)[C@@H](O)[C@H](Cc1ccccc1)NC(=O)[C@@H](NC(=O)[C@H](CCC(=O)O)NC(=O)OC(C)(C)C)C(C)C [Example 83, N,N,-bis-<tert.-Butoxycarbonyl-L-glutamyl-L-valyl>-2S,5S-diamino-1,6-diphenylhexane-3S,4S-diol]",10
6,"CC(C)[C@H](NC(=O)[C@H](CCC(=O)OCc1ccccc1)NC(=O)OC(C)(C)C)C(=O)N[C@@H](Cc1ccccc1)[C@H](O)[C@@H](O)[C@H](Cc1ccccc1)NC(=O)[C@@H](NC(=O)[C@H](CCC(=O)OCc1ccccc1)NC(=O)OC(C)(C)C)C(C)C [Example 84, N,N,-bis-<(N-tert.-Butoxycarbonyl-O-benzyl-L-glutamyl)-L-valyl>-2S,5S-diamino-1,6-diphenylhexane-3S,4S-diol]",110
7,"CC(C)[C@H](NC(=O)CNC(=O)OC(C)(C)C)C(=O)N[C@@H](Cc1ccccc1)[C@@H](O)[C@H](O)[C@H](Cc1ccccc1)NC(=O)[C@@H](NC(=O)CNC(=O)OC(C)(C)C)C(C)C [Example 86, N,N'-bis-<tert.-Butoxycarbonylglycyl-L-valyl>-2S,5S-diamino-1,6-diphenylhexane-3R,4R-diol]",2.2
8,"CC(C)C[C@H](N)C(=O)N[C@H](C(=O)N[C@@H](Cc1ccccc1)[C@H](O)[C@@H](O)[C@H](Cc1ccccc1)NC(=O)[C@@H](NC(=O)[C@@H](N)CC(C)C)C(C)C)C(C)C [Example 87, N,N'-bis-<L-Leucyl-L-valyl>-2S,5S-diamino-1,6-diphenyl-hexane-3S,4S-dioldihydrochloride]",1.6
9,"CC(C)C[C@H](NC(=O)OC(C)(C)C)C(=O)N[C@H](C(=O)N[C@@H](Cc1ccccc1)[C@H](O)[C@@H](O)[C@H](Cc1ccccc1)NC(=O)[C@@H](NC(=O)[C@H](CC(C)C)NC(=O)OC(C)(C)C)C(C)C)C(C)C [Example 88, N,N'-bis-<tert.-Butoxycarbonyl-L-leucyl-L-valyl>-2S,5S-diamino-1,6-diphenylhexane-3S,4S-diol]",1000
10,"CC(C)[C@H](NC(=O)[C@H](CCS(C)(=O)=O)NC(=O)OC(C)(C)C)C(=O)N[C@@H](Cc1ccccc1)[C@@H](O)[C@H](O)[C@H](Cc1ccccc1)NC(=O)[C@@H](NC(=O)[C@H](CCS(C)(=O)=O)NC(=O)OC(C)(C)C)C(C)C [Example 90, N,N'-bis-<tert.-Butoxycarbonyl-L-(S-dioxo)methionyl-L-valyl>-2S,SS-diamino-1,6-diphenylhexane-3R,4R-diol]",2.2

# Further lines, results first:
row,IC50 [nM],Compound
1,30,"N[C@@H](Cc1ccccc1)C(=O)N[C@H](C(=O)N[C@@H](Cc1ccccc1)[C@@H](O)[C@H](O)[C@H](Cc1ccccc1)NC(=O)[C@@H](NC(=O)[C@@H](N)Cc1ccccc1)C1CCCCC1)C1CCCCC1 [Example 72, N,N'-bis-<L-Phenylalanyl-L-cyclohexylglycyl>-2S,5S-diamino-1,6-diphenylhexane-3R,4R-diol dihydrochloride]"
2,1.7,"CSCC[C@H](N)C(=O)N[C@H](C(=O)N[C@@H](Cc1ccccc1)[C@H](O)[C@@H](O)[C@H](Cc1ccccc1)NC(=O)[C@@H](NC(=O)[C@@H](N)CCSC)C(C)C)C(C)C [Example 74, N,N'-bis-<L-Methionyl-L-valyl>-2S,5S-diamino-1,6-diphenylhexane-3S,4S-dioldihydrochloride]"
3,28,CC(C)[C@H](NC(=O)[C@H](CCCCNC(=O)OCc1ccccc1)NC(=O)OC(C)(C)C)C(=O)N[C@@H](Cc1ccccc1)[C@@H](O)[C@H](O)[C@H](Cc1ccccc1)NC(=O)[C@@H](NC(=O)[C@H](CCCCNC(=O)OCc1ccccc1)NC(=O)OC(C)(C)C)C(C)C [Example 80]
4,9,"CC(C)[C@H](NC(=O)[C@@H](N)CCC(=O)O)C(=O)N[C@@H](Cc1ccccc1)[C@H](O)[C@@H](O)[C@H](Cc1ccccc1)NC(=O)[C@@H](NC(=O)[C@@H](N)CCC(=O)O)C(C)C [Example 82, N,N,-bis-<L-Glutamyl-L-valyl>-2S,5S-diamino-1,6-diphenyl-hexane-3S,4S-dioldihydrochloride]"
5,1.9,"CC(C)[C@H](NC(=O)CN)C(=O)N[C@@H](Cc1ccccc1)[C@@H](O)[C@H](O)[C@H](Cc1ccccc1)NC(=O)[C@@H](NC(=O)CN)C(C)C [Example 85, N,N'-bis-<Glycyl-L-valyl>-2S,5S-diamino-1,6-diphenyl-hexane-3R,4R-dioldihydrochloride]"
6,1.8,"CC(C)[C@H](NC(=O)[C@@H](N)CCS(C)(=O)=O)C(=O)N[C@@H](Cc1ccccc1)[C@@H](O)[C@H](O)[C@H](Cc1ccccc1)NC(=O)[C@@H](NC(=O)[C@@H](N)CCS(C)(=O)=O)C(C)C [Example 89, N,N'-bis-<L-(S-Dioxo)methionyl-L-valyl>-2S,5S-diamino-1,6-diphenylhexane-3R,4R-diol dihydrochloride]"
7,1.3,"CC(C)(C)[C@H](NC(=O)[C@H](Cc1ccccc1)CS(=O)(=O)C(C)(C)C)C(=O)N[C@@H](Cc1ccccc1)[C@@H](O)[C@H](O)[C@H](Cc1ccccc1)NC(=O)[C@@H](NC(=O)[C@H](Cc1ccccc1)CS(=O)(=O)C(C)(C)C)C(C)(C)C [Example 91, N,N'-bis-<(2S-(1,1-Dimethylethylsulfonylmethyl)-3-phenyl-propionyl)-L-tert.-butylglycyl>-2S, 5S-diamino-1,6-diphenylhexane-3R, 4R-diol]"
8,6.5,"CC(C)[C@H](NC(=O)[C@@H](O)CCc1ccccc1)C(=O)N[C@@H](Cc1ccccc1)[C@H](O)[C@@H](O)[C@H](Cc1ccccc1)NC(=O)[C@@H](NC(=O)[C@@H](O)CCc1ccccc1)C(C)C [Example 94, N,N'-bis-<(2S-Hydroxy-4-phenylbutyryl)-L-valyl>-2S,5S-diamino-1,6-diphenylhexane-3S,4S-diol]"
9,36,"CC(C)[C@H](NC(=O)C(Cc1ccccc1)CS(=O)(=O)N1CCC(N)CC1)C(=O)N[C@@H](Cc1ccccc1)[C@@H](O)[C@H](O)[C@H](Cc1ccccc1)NC(=O)[C@@H](NC(=O)C(Cc1ccccc1)CS(=O)(=O)N1CCC(N)CC1)C(C)C (stereo partly drawn) [Example 97, N,N'-bis-<3-(4-Amino-1-piperidylsulfonyl)-2-benzyl-propionyl-L-valyl>-2S,5S-diamino-1,6-diphenylhexane-3R,4R-diol]"
